The values below are quoted from earlier work in patent US20060168671A1, “Injection of caprine sperm factor (cSF), phospholipase C zeta (PLCzeta) and adenophostin A as alternative methods of activation during nuclear transfer in the caprine species” (priority 2005, published 2006).

One series deals with IP3R. The following applies: relative to IP3; Takahashi et al., 1994.
The next series concerns MII mouse eggs. Conditions: Jellerette et al., 2000.

With `Nc1ncnc2c1ncn2[C@@H]1O[C@H](CO)[C@@H](O[C@H]2O[C@H](CO)[C@@H](OP(=O)(O)O)[C@H](OP(=O)(O)O)[C@H]2O)[C@H]1OP(=O)(O)O` [Adenophostin A], the “affinity to IP3R greater than IP3 itself” value with IP3R was 10-100 fold. In the series on MII mouse eggs, the “[Ca2+]i oscillations” value is recorded as “induces fertilization-like oscillations” and the activation rates result is “high activation rates”.
